Reference: ChEMBL document CHEMBL1157539, “Thousands of chemical starting points for antimalarial lead identification” (Nature, 2010)

System: Plasmodium falciparum
Experiment: GSK_TCMDC: Inhibition of Plasmodium falciparum 3D7 in whole erythrocytes, using parasite LDH activity as an index of growth.
Type: functional, organism-based
Settings: Plasmodium falciparum, 3D7

CCN(CC)CCOc1c(Cl)cc(Cl)cc1CNCCCNc1cc(=O)c2ccccc2[nH]1
XC50: 871 nM

Cc1ccc(C(NC(=O)C2CCCCC2)c2ccc3cccnc3c2O)cc1 (configuration not stated)
XC50: 953 nM

Cc1ccc2[nH]c3c(c2c1)CC(C(=O)NCCC(C)C)NC31CCN(Cc2ccccc2)CC1 (configuration not stated)
XC50: 932 nM

Cc1cccc2nc(-c3ccc(-c4ccc(NC(=O)C(C)CN5CCN(C)CC5)cc4)s3)[nH]c12 (configuration not stated)
XC50: 731 nM

Cc1nc(C)c(-c2ccc(Oc3ccc(Cl)cc3)c(Cl)c2)c(O)c1Br
XC50: 495 nM

COc1ccc(-c2ccc(NC(=O)c3cccc(C#N)c3)cc2)cc1CN1CCCN(C)CC1
XC50: 293 nM

CCN(CC)Cc1cc(Nc2c3ccc(Cl)cc3nc3cccc(OC)c23)ccc1O
XC50: 33.4 nM

O=C(NCCCCCN1CCCN(C(=O)Nc2ccc(Cl)c(C(F)(F)F)c2)CC1)C1CC1c1ccc(Cl)c(Cl)c1 (configuration not stated)
XC50: 852 nM

CC1(C)N=C(N)N=C(N)N1O
XC50: 192 nM

CC(C)c1ccc(CN2CCC(CNC(=O)c3cc(-c4cccc(Cl)c4)cs3)C2)cc1 (configuration not stated)
XC50: 752 nM

COc1ccc2nccc([C@@H](O)CN3CCC(NCc4nc5cc(F)ccc5o4)CC3)c2c1
XC50: 149 nM

Cc1cc(C2CCN(CCCCNC(=O)c3ccc(-c4ccc(C#N)cc4)cc3)CC2)c(C)cc1OCCO
XC50: 808 nM

Cc1c(C(=O)N(C)C)sc2c1c(=O)n(Cc1ccccc1)c(=O)n2CC(=O)Nc1ccccc1F
XC50: 657 nM

Oc1ccc(CN2CCN(CCOC(c3ccccc3)c3ccccc3)CC2)cc1Cl
XC50: 806 nM

Cc1[nH]c2ccccc2c1C(=O)C(C)Sc1nnc(-c2ccccc2Br)[nH]1 (configuration not stated)
XC50: 34.8 nM

CCCCc1ccc2[nH]c(NC(=O)OC)nc2c1 [PARBENDAZOLE]
XC50: 683 nM

CCC[C@@H]([C@@H](CC1CCC(C)CC1)C(=O)N[C@@H](CO)C(=O)Nc1nccs1)N(O)C=O (some centres not stated)
XC50: 325 nM

O=[N+]([O-])c1ccc(Nc2nc(N/N=C/c3cccc(O)c3)nc(N3CCCC3)n2)cc1
XC50: 1080 nM

Cc1c(CNCCCNc2nc3cscc3[nH]2)sc(C(F)F)c1Br
XC50: 936 nM

CCCCCCNCc1c(O)ccc2c(CNCCCCCC)c(O)ccc12
XC50: 130 nM

COc1ccc(CN(C)Cc2cc(C(C)C)c(C)cc2O)cc1F
XC50: 654 nM

O=C(NCCCCN1CCC(c2ccc(Br)cc2)CC1)c1ccc(NC(=O)c2ccc(Cl)cc2)cc1
XC50: 712 nM

FC(F)(F)c1ccc(-c2cncc(-c3ccc(C(F)(F)F)cc3)n2)cc1
XC50: 759 nM

Cc1cc(N[C@@H](Cc2ccccc2)C(=O)NCCOc2ccccc2)nc(NCc2ccccc2C)n1
XC50: 711 nM

CN(C)CCCNc1ncnc2c1[nH]c1ccc(F)cc12
XC50: 732 nM

COc1cc2c(C3CCN(CC4CCN(C(=O)/C=C/c5ccc(Cl)c(Cl)c5)CC4)CC3)c[nH]c2cn1
XC50: 730 nM

CN(C)c1cccc(-c2cnc3ccc(NCc4cccc(Cl)c4)nn23)c1
XC50: 700 nM

CCOc1cc(C)ccc1C1CCN(CCN2CCC(CNC(=O)c3ccc(-c4ccc(C(F)(F)F)cc4)cc3)CC2)CC1
XC50: 701 nM

COc1ccc(-c2ccnc(-c3cccc(-c4ccccn4)n3)c2)cc1
XC50: 824 nM

O=C(/C=C/c1ccc(Cl)c(Cl)c1)NCCCCCN1CCCC(C(=O)Nc2ccc(F)c(Cl)c2)C1 (configuration not stated)
XC50: 903 nM

Oc1ccc(CCNc2nc(N/N=C/C=C/c3ccc(Cl)cc3)nc(N3CCNCC3)n2)cc1
XC50: 779 nM

Cc1ccc(CNC(=O)[C@H](CC(C)C)Nc2cc(C)nc(NCc3ccccc3C)n2)cc1
XC50: 952 nM

COc1ccc2nccc([C@@H](O)CN3CCC(NC(=O)c4ccc(CN5CCN(c6cccc(C)c6)CC5C)cc4)CC3)c2c1 (some centres not stated)
XC50: 211 nM

CCCN(C(=O)c1ccccc1C)c1nnc(-c2cccc(C)c2)s1
XC50: 896 nM

COc1ccc(OC)c(CNCC(O)c2cc(C(F)(F)F)cc(C(F)(F)F)c2)c1 (configuration not stated)
XC50: 443 nM

O=C(/C=C/C=C/c1ccccc1)NC1CCC(CN2CCC(c3c[nH]c4ccccc34)CC2)CC1 (configuration not stated)
XC50: 868 nM

CN1CCN(c2cc(-c3ccncc3)nc(-c3cccnc3)n2)CC1
XC50: 809 nM

Cc1c(-c2ccccc2)ccc2[nH]cc(CC#N)c12
XC50: 703 nM

Cc1cccc2nc(-c3cccc(-c4ccc(NC(=O)c5cccc(C(N)=O)c5)cc4)c3)[nH]c12
XC50: 410 nM

CN(C)c1ccc(-c2ccc(C(=O)NC3CCN(Cc4ccc5c(c4)OCCO5)CC3)s2)cc1
XC50: 1120 nM

CN(C)CCC1CCCc2ccc(NC(=O)Nc3cccc(Cl)c3Cl)cc21 (configuration not stated)
XC50: 958 nM

Cc1cnc(NCC2CCCCC2)nc1N[C@@H](CO)C(=O)Nc1ccccc1
XC50: 1100 nM

CC(C)(C)OC(=O)NCc1ccc(Nc2nnc(-c3ccc(OCC(=O)NCc4ccc(C(C)(C)C)cc4)c([N+](=O)[O-])c3)o2)cc1
XC50: 800 nM

N=C(N)NCCN(Cc1ccccc1)c1ccc(Cl)cc1
XC50: 48 nM

Cc1ccnc2nc(C(=O)Nc3cc(Cl)ccc3N3CCOCC3)nn12
XC50: 1240 nM

CC(=O)c1ccc(Nc2c(C(N)=O)cnc3cc(-c4c(C)noc4C)ccc23)cc1
XC50: 195 nM

O=C(CCCCCNC(=O)c1ccc(O)c(-c2ccc(Cl)c(Cl)c2)c1)NCCN1CCCC1
XC50: 980 nM

CS(=O)(=O)Nc1ccc2[nH]cc(C3CCN(CC4CCC(NC(=O)/C=C/c5ccc(Cl)c(Cl)c5)CC4)CC3)c2n1 (configuration not stated)
XC50: 780 nM

CC(C)(C)c1ccc(C(=O)Nc2cccc(Nc3c(C(=O)NCc4cccc(C(F)(F)F)c4)cnc4c(O)cccc34)c2)cc1
XC50: 1090 nM

CCOC(=O)[C@H](Cc1cc([N+](=O)[O-])c(Oc2ccc(OC)c(Cc3ccc(OC)c(C(C)C)c3)c2)c([N+](=O)[O-])c1)NC(=O)C(F)(F)F
XC50: 984 nM

CNC(=O)c1cnc(Nc2ccc(N3CCN(C)CC3)cc2)nc1Nc1cccc([N+](=O)[O-])c1
XC50: 288 nM

CC(Cc1ccc(NC(=O)c2ccc(NCCc3ccccc3)cc2)cc1)NCCc1cccc(Cl)c1 (configuration not stated)
XC50: 854 nM

Cc1cccc2nc(-c3ccc(-c4ccc(CN5CCN(CC6CCCN(C)C6)CC5)cc4)cc3)[nH]c12 (configuration not stated)
XC50: 144 nM

CNC(=O)C1Cc2c([nH]c3cc(Cl)ccc23)C2(CCN(CCc3ccccc3)CC2)N1 (configuration not stated)
XC50: 934 nM

CC(=O)N1c2ccccc2C(C)=CC1(C)C
XC50: 938 nM

CC(=O)N1N=C(c2ccc(Cl)cc2)Sc2c1nc(-c1ccccc1)n2C(C)=O
XC50: 493 nM

NC1CCN(Cc2cccc(-c3csc(-c4nc5ccccc5[nH]4)c3)c2)C1 (configuration not stated)
XC50: 892 nM

COc1cc(NC(=O)N2CCc3ccc(OCCN(C(C)C)C(C)C)cc32)cc(C(F)(F)F)c1
XC50: 186 nM

CS(=O)(=O)c1ccc(CNCc2ccc(-c3ccc(-c4nc5cc(C(F)(F)F)ccc5[nH]4)cc3)cc2)cc1
XC50: 706 nM

O=C1OC(c2ccccc2)(c2ccccc2)CN1C1CCN(Cc2ccc(O)c(Cl)c2)C1 (configuration not stated)
XC50: 955 nM

COc1cccc(CCNc2nc(NCc3ccccc3)c3cc(OC)c(OC)cc3n2)c1
XC50: 321 nM

CNc1c2c(nc3ccc(NC(=O)CCCCCCc4ccccc4)cc13)CCCC2
XC50: 915 nM

CN1CCC(c2c[nH]c3ccc(NC(=O)Nc4ccc(-c5ccncc5)cc4Cl)cc23)CC1
XC50: 836 nM

COC(=O)C1(NC(=O)c2ccc(-n3nc(C)c(-c4ccccc4)c3N)cc2)CCCC1
XC50: 370 nM

O=C(NCc1cccc(CN2CCOCC2)c1)c1cc(Br)cc(N2CCN(c3ccncc3)CC2)c1
XC50: 858 nM

CCNc1cc(C(=O)N[C@@H](Cc2ccccc2)[C@H](O)CNC(C)Cc2cccc(Cl)c2)cc(N2CCCCS2(=O)=O)c1 (some centres not stated)
XC50: 496 nM

CCCCCCNC(=O)C1Cc2c([nH]c3ccc(C)cc23)C2(CCN(CCc3ccccc3)CC2)N1 (configuration not stated)
XC50: 1270 nM

CN(C)C(CNC(=O)c1cc(-c2ccncc2)c(-c2cc3ccccc3[nH]2)o1)c1ccccc1 (configuration not stated)
XC50: 841 nM

Cc1cc(N[C@@H](Cc2ccccc2)C(=O)NC2CCCC2)nc(Nc2ccccc2)n1
XC50: 828 nM

N=C(N)Nc1nc(-c2cccc(NC(=O)Cc3ccccc3)c2)cs1
XC50: 1000 nM

CCCCCCCc1c(C)[nH]c2ccc(F)cc2c1=O
XC50: 289 nM

COc1ccc(C(=O)CCC(=O)N(Cc2ccc(-c3ccc(CNCCc4ccc(S(C)(=O)=O)cc4)cn3)cc2)C2CC3CCC2C3)cc1F (configuration not stated)
XC50: 927 nM

N#Cc1ccccc1N1CCN(C2CCC(NC(=O)c3n[nH]c4cc(C(F)(F)F)ccc34)CC2)CC1 (configuration not stated)
XC50: 1370 nM

CC1(C)N=C(NC(=O)c2cc([N+](=O)[O-])cc([N+](=O)[O-])c2)N=C(N)N1OCc1cccc2ccccc12
XC50: 6.84 nM

CN(Cc1ccccc1)C1CCCN(c2cc(NC(=O)c3ccc(F)cc3)ccn2)C1 (configuration not stated)
XC50: 988 nM

CN1CCN(c2cccc(-c3nnc(-c4ccc(OCC(=O)NCc5ccc(C(F)(F)F)cc5)c([N+](=O)[O-])c4)o3)c2)CC1
XC50: 661 nM

COc1ccc(Nc2nccc(N3CCC(NC(=O)Nc4cccc(OC)c4)C3)n2)cc1 (configuration not stated)
XC50: 424 nM

N=C1N=C(N)NC2(CCCCC2)N1OCCOc1ccc(Cc2ccccc2)cc1
XC50: 1130 nM

COc1ccc2ccccc2c1C=NN=c1cc(C)[nH]c2cc(C(F)(F)F)ccc12
XC50: 1040 nM

O=C(Nc1cccc(-c2cccc(F)c2)c1)C1CCN(Cc2ccc(O)cc2)CC1
XC50: 1730 nM

CC(=O)Nc1ccc(C(=O)Nc2cccc(-c3csc(-c4nc5ccccc5[nH]4)c3)c2)cn1
XC50: 119 nM

CCOc1ccc(C(Cc2ccccc2)NC(=O)c2cccnc2)cc1OCC (configuration not stated)
XC50: 769 nM

COc1c(CNCCCCCCNCc2cc(Cl)c3ccccc3c2OC)cc(Cl)c2ccccc12
XC50: 937 nM

CN(C)CCCSc1ccccc1NC(=O)C=Cc1ccccc1
XC50: 964 nM

O=C(Nc1ccc(-c2nc3ccccc3[nH]2)cc1)c1cccc([N+](=O)[O-])c1
XC50: 220 nM

FC(F)(F)c1ccc(Nc2nnnc3ccccc23)cc1
XC50: 692 nM

COc1cc2nc(N3CCC(CNC(=O)c4ccc(OC(F)(F)F)cc4)CC3)nc(N)c2cc1OC
XC50: 224 nM

CCCCC(=O)Nc1ccc(Nc2nc(C)cc(N3CCCC3)n2)cc1
XC50: 1060 nM

COc1ccccc1-c1csc(C(=O)NC2CCCCN(Cc3ccc(C(C)(C)C)cc3)C2)c1 (configuration not stated)
XC50: 1530 nM

Cc1noc(C)c1-c1cccc(CNCc2cccc(-c3cccc(-c4nc5cc(F)ccc5[nH]4)c3)c2)c1
XC50: 176 nM

O=C(CN1CCCCC1)Nc1ccc(Nc2nccc(NCC(O)c3ccccc3)n2)cc1 (configuration not stated)
XC50: 583 nM

CC(C)c1ccc(NC(S)=NN=Cc2ccccn2)cc1
XC50: 724 nM

N#Cc1ccc(CNCCCCCCNCc2ccc(C#N)c3ccccc23)c2ccccc12
XC50: 610 nM

O=C(c1ccccc1)N(Cc1ccccc1-c1ccc(CNCCc2ccccc2)cc1)C1CCN(Cc2ccccc2)CC1
XC50: 995 nM

CN(C)CCC(=O)c1ccccc1
XC50: 335 nM

CCC(C)(C)c1ccc(N2C(N)=NC(N)=NC2(C)C)cc1
XC50: 11.8 nM

Cc1c(C)c2c(c(C)c1O)CC[C@@](C)(C(=O)NC1CCC(CN3CCC(c4c[nH]c5ccccc45)CC3)CC1)O2 (some centres not stated)
XC50: 965 nM
